According to PMC10907374, “G2019S selective LRRK2 kinase inhibitor abrogates mitochondrial DNA damage” (NPJ Parkinson's Disease, 2024):

Tests used:
[1] = test system: wild-type HEK293 cells; assay: Mitophagy (Mtphagy dye / Lyso dye live cell imaging) in wild-type HEK293 cells; type: cell-based, human; conditions: 20 μM FCCP, 3 h
Protocol: (§1) Thirty-five mm cell culture dishes (Cellvis, D35-20-1.5-N) were coated with poly-D-lysine (Sigma-Aldrich, P7280-5MG) for 5 min, washed with cell culture grade water (Sigma-Aldrich, W3500), and allowed to dry for at least 1 h before plating. LRRK2^G2019S/G2019S KI HEK293 and wild-type cells were passaged as described above and plated at 300,000 cells per well on poly-D-lysine-coated dishes. […] Following this, cells were washed three times with serum-free medium, and a working solution of Mtphagy dye (Dojindo, MD-01) was prepared in serum-free medium according to manufacturer protocols. Cultures were incubated with Mtphagy dye for 30 min, followed by three washes with serum-free medium. Complete medium was used to prepare a 20 µM FCCP (Abcam, ab120081) or DMSO control treatment solution, which was used to treat cells for 3 h. Following treatment, cells were then washed 3 times with serum-free medium, and a working solution of Lyso dye (Dojindo, MD-01) was prepared in serum-free medium and used to treat cells for 30 min. Complete medium lacking phenol red was prepared for use in confocal live cell imaging by combining phenol red-free DMEM/F-12 (Fisher Scientific, 21-041-025), FBS (VWR, 97068-085), and penicillin-streptomycin (VWR, 45000-652). Following Lyso dye treatment, cultures were washed three times with phenol red-free medium, followed by adding fresh phenol red-free medium to cell culture dishes. MitoBright LT Deep Red (Dojindo, MT12-12) was diluted in growth medium to prepare a 0.1 μmol/l solution and was used to treat cells for 15 min for total mitochondrial staining. Live cell imaging (5% CO2, 37 °C) was performed using a Zeiss LSM 880 Confocal Laser Scanning Microscope with Zen Black software. On average, ~70 cells were analyzed for each condition per each experimental replicate.
(§2) Following imaging, files were processed using Zen Blue software, and TIFF files of each channel were obtained for analysis. ImageJ was used to obtain readouts for image analysis. All images were converted to 8-bit format. For each respective image, the Lyso dye channel was used to create a mask delineating each lysosomal focus as a region of interest (ROI). Thresholding parameters were adjusted between biological replicates as required to ensure that the Lyso dye ROI encompassed all lysosome foci appropriately, and this was used to create a mask. This was then applied to the corresponding Mtphagy dye channel image, allowing collection of Mtphgy fluorescence intensity readouts for each lysosomal focus. Outliers were removed using Prism software (GraphPad) with the coefficient of removal set to 0.2%. Data was thresholded to exclude lysosomes not containing mitochondria by excluding fluorescence values with intensities equal to or below background levels. The number of ROIs remaining after thresholding was used to quantify lysosomes containing fluorescing mitochondria (mitolysosomes). Fluorescence intensity values for all mitolysosomes per condition per biological replicate were averaged to obtain a value of mitophagy fluorescence intensity per mitolysosome. For each replicate, all values of average mitolysosome fluorescence intensity were normalized to wild-type (vehicle treated) levels for the given replicate.

[2] = test system: LRRK2^G2019S/G2019S KI HEK293 cells; assay: Mitophagy (Mtphagy dye / Lyso dye live cell imaging) in LRRK2 G2019S/G2019S KI HEK293 cells; type: cell-based, human; conditions: 20 μM FCCP, 3 h
Protocol: as §1, §2

[3] = test system: LRRK2 kinase; conditions: humans ref 15; cited from earlier work

Structure (SMILES) | mitophagy following FCCP treatment [1] | mitophagy following FCCP treatment [2] | inhibition of LRRK2 kinase by blood-based markers [3]
N#CC(C#N)=NNc1ccc(OC(F)(F)F)cc1 [FCCP] | increased | defect | 
CNc1nc(Nc2cn(C(C)(C)C#N)nc2C)ncc1C(F)(F)F [DNL201] |  |  | dose-dependent inhibition
